Measured values from ChEMBL document CHEMBL1201862, “PubChem BioAssay data set” (2004).
The source made the active and inactive calls.

Experiments:
[1] = biological target: T1, Heat shock factor protein 1 (Mus musculus, UniProt P38532); assay: inhibition of MG132-induced HSE-luciferase signal, confirmation, cell-based, NIH3T3, luminescence, dose retest (AID 2382); format: functional;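 further: NIH3T3 fibroblasts with HSF1-driven luciferase reporter stressed by proteasome inhibitor MG132; luminescence from HSF1-driven luciferase expression after 8 hours of MG132 stress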
T1 sequence (P38532 whole entry): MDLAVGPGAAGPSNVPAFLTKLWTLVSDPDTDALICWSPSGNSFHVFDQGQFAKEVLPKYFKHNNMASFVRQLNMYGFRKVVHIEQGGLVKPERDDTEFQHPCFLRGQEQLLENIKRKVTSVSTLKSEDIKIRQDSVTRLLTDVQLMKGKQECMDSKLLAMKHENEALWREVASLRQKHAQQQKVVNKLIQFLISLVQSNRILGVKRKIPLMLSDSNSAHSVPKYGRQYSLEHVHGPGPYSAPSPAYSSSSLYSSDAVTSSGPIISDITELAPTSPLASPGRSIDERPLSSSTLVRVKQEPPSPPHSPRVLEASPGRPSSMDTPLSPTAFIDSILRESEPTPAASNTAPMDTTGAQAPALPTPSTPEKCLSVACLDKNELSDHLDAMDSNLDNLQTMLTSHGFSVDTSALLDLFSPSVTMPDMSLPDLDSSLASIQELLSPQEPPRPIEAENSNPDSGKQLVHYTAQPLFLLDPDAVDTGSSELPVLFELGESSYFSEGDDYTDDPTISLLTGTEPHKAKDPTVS

[2] = biological target: G-protein coupled receptor 55 (Homo sapiens, UniProt Q9Y2T6); assay: GPR55 agonists via beta-arrestin recruitment, primary screen, imaging, U2OS cells, beta-arrestin-GFP redistribution (AID 1961); format: functional
Chain of G-protein coupled receptor 55 (Q9Y2T6 whole entry): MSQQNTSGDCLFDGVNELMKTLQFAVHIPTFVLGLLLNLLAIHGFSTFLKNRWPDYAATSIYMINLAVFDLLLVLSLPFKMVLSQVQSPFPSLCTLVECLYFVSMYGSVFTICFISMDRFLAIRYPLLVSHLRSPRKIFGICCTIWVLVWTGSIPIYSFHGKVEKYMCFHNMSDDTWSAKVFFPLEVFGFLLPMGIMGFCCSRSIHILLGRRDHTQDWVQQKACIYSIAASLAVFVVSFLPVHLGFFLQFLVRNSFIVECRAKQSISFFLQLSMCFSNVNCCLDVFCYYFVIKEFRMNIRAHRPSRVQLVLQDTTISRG

Aminopeptidase N = Aminopeptidase N (Plasmodium falciparum FcB1/Columbia, UniProt O96935); assay: P. falciparum M1AAP inhibitors, biochemical, fluorogenic H-Leu-NHMec substrate, 1536-well (AID 1445); design: species or system Plasmodium falciparum 3D7, 3D7
Chain of Aminopeptidase N (O96935 whole entry): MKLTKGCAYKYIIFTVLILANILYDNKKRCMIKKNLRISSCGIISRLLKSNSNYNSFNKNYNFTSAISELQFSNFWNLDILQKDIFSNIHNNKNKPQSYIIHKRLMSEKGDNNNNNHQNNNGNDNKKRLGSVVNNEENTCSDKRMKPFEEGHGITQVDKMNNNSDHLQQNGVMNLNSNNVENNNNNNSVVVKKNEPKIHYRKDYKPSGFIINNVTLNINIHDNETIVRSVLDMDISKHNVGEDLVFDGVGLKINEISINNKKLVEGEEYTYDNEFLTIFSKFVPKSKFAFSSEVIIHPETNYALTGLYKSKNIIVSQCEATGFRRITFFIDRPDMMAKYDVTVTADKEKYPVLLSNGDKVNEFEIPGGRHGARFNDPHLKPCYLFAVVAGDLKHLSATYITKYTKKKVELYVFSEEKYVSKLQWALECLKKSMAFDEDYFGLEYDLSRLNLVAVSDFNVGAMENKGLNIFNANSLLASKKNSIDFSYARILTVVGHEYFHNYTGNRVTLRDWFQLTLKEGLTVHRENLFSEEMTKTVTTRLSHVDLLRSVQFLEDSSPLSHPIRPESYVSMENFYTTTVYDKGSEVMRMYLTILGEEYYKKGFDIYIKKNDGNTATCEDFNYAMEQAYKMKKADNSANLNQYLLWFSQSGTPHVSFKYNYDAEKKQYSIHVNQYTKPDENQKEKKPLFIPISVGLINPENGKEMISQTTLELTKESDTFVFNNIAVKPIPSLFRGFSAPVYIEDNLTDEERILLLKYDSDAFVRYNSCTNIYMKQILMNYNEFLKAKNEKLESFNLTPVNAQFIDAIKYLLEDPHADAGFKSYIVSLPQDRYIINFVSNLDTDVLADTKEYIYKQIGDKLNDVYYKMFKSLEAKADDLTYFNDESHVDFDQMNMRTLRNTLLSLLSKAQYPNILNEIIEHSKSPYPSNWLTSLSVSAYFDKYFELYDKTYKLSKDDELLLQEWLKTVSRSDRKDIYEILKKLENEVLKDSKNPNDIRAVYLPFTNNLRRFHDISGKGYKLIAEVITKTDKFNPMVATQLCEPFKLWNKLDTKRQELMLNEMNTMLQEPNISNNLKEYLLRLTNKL

[3] = biological target: Scavenger receptor class B member 1 (Mus musculus, UniProt Q61009); assay: inhibitors of SR-BI mediated HDL lipid uptake, dose response, ldlA[mSR-BI] cells, fluorescence, cherry pick (AID 493194); format: functional, cell-based;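 further: cellular uptake of fluorescent DiI-labeled HDL measured as cell fluorescence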
Chain of Scavenger receptor class B member 1 (Q61009 whole entry): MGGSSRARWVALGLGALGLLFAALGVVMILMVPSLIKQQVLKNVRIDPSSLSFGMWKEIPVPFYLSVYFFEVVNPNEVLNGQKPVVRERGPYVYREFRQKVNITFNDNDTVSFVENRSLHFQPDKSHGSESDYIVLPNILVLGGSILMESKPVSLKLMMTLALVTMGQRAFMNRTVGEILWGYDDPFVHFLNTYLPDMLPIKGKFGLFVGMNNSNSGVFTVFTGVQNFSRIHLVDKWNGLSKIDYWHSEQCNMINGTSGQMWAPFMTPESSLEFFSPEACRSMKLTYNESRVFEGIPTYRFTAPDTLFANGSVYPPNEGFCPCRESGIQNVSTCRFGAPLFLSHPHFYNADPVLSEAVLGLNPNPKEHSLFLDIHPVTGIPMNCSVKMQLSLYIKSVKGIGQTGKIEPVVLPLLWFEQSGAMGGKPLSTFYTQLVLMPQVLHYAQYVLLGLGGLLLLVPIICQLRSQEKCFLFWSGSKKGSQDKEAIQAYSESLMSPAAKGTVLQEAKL

[4] = NIH-3T3 fibroblast cytotoxicity, dose response, cytotoxicity control, cell-based, fluorescence, Alamar Blue, secondary assay (AID 2327); format: functional;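 further: NIH-3T3 mouse fibroblasts cultured with fluconazole at 8 µg/mL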
Bcl-2-like protein 10 = biological target: T2, Bcl-2-like protein 10 (Homo sapiens, UniProt Q9HD36); assay: displacers of TR3 peptide from Bcl-B, primary screen, selectivity assay for Bfl-1 inhibitor project, biochemical, fluorescence polarization, FITC-TR3 peptide (AID 748);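 further: fluorescence polarization from a fluorescein-labelled TR3 peptide binding purified Bcl-B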
T2 sequence (Q9HD36 whole entry): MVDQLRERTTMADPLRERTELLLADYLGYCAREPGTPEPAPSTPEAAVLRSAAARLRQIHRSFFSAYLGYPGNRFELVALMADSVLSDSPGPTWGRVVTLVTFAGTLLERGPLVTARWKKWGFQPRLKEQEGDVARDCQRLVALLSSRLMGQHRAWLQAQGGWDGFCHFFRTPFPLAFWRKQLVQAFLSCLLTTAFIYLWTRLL

[5] = C. albicans growth with fluconazole, confirmation, fluorescence, retest (AID 2467); format: functional, cell-based
Estrogen receptor = biological target: T3, Estrogen receptor (Homo sapiens, UniProt P03372);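 further: potency for inhibiting coactivator peptide recruitment to the receptor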
T3 sequence (P03372 whole entry): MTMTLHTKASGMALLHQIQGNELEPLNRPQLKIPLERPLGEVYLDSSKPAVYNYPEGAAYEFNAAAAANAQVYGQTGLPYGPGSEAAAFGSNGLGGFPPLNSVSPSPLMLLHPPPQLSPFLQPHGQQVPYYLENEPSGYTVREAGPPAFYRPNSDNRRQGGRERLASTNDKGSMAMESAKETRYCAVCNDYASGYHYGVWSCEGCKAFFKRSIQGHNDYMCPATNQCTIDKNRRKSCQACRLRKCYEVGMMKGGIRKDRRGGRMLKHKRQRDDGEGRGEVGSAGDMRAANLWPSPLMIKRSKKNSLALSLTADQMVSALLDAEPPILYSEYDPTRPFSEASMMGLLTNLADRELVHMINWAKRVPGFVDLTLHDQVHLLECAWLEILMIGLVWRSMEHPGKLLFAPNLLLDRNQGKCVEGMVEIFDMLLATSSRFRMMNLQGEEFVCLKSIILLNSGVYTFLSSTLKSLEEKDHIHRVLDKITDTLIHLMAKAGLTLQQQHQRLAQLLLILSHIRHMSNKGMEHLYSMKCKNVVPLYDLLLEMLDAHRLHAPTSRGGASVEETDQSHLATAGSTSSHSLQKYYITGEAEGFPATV

Nonstructural protein 1 = Nonstructural protein 1 (Influenza A virus, UniProt Q194T2); format: functional, Influenza A virus (A/California/07/2009(H1N1))
Chain of Nonstructural protein 1 (Q194T2 whole entry): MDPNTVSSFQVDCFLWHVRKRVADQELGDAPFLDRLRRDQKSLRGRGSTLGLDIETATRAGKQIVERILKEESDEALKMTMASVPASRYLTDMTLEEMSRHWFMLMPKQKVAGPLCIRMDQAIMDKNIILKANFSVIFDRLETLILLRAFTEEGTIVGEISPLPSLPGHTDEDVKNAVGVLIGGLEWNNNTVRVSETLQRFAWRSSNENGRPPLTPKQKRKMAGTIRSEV

INS1 = assay: beta cell apoptosis inhibitors, cytokine rescue, dose response, luminescence, retest (AID 449756); format: functional, cell-based; conditions: Rattus norvegicus;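 further: cell death triggered by IL-1 beta plus TNF-alpha plus IFN-gamma mixture; protective hits raise ATP signal compared with cytokine alone wells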
[6] = THP-1 cell cytotoxicity, dose response, cytotoxicity control for Vif-APOBEC3G degradation inhibitor project, THP-1 cells (AID 1117359); format: functional; conditions: Human immunodeficiency virus 1, THP-1
[7] = biological target: T4, Corticotropin-releasing factor receptor 2/Corticotropin-releasing factor-binding protein (Homo sapiens, UniProt P24387+Q13324); assay: Dose Response confirmation of uHTS hits for small molecule antagonists of the CRF-binding protein and CRF-R2 receptor complex.; format: functional; conditions: read-out: IC50_Mean
T4 sequence (Q13324 whole entry): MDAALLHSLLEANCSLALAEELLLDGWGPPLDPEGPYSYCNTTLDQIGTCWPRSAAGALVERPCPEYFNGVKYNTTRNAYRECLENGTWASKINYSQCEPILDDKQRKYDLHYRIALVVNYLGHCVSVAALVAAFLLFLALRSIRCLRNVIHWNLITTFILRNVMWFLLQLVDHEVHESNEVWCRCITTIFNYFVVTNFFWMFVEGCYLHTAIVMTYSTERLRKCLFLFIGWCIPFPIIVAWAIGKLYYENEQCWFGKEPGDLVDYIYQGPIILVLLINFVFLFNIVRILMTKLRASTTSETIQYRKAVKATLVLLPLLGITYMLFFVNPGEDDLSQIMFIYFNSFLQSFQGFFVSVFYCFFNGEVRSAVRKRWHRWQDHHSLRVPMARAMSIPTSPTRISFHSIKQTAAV
T4 sequence (P24387 whole entry): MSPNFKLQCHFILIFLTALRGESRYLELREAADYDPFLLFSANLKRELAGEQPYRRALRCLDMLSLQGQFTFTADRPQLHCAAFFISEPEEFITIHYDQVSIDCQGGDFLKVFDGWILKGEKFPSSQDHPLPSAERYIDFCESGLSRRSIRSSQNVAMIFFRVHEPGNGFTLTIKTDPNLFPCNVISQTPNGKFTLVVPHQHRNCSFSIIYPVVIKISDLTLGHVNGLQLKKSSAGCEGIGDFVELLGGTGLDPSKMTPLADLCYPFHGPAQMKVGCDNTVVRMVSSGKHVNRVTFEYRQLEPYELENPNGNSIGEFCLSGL

[8] = biological target: T4, Corticotropin-releasing factor receptor 2/Corticotropin-releasing factor-binding protein; assay: activators of CRF receptor 2 with binding protein – uHTS hits, confirmation (AID 602473); format: functional; conditions: read-out: EC50_Mean
[9] = CRF-BP/CRF-R2 complex antagonists, dose response, cell-based, uHTS hits, 384-well (AID 651639); format: functional, Homo sapiens; conditions: read-out: IC50_Mean
[10] = Luminescence Cell-Based Dose Confirmation HTS to Identify Activators of 5'UTR Stem-Loop Driven Alpha-Synuclein mRNA Translation in H4 Neuroglioblastoma Cells. [Related pubchem assays: 1829 (Project Summary), 1814 (Primary HTS)]; format: functional
[11] = Luminescence Cell-Based Dose Response HTS to Identify Activators of Luciferase Translation or Activity in H4 […] Cells. [Related pubchem assays: 1829 (Project Summary), 1814 (Primary HTS)]; format: functional
H4 = assay: Luminescence Cell-Based Dose Response HTS to Identify Activators of 5'UTR Stem-Loop Driven Prion Protein mRNA Translation in H4 Neuroglioblastoma Cells. [Related pubchem assays: 1829 (Project Summary), 1814 (Primary HTS)]; format: functional; conditions: Homo sapiens
[12] = growth suppression of PTEN-null colon cells, dose response, cell-based, HCT116 PTEN knockout (AID 1047); format: functional;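 further: HCT116 colon tumor cells with PTEN knocked out; cells exposed to compound for 60 hours before readout; potency for loss of cell viability measured by luminescence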
[13] = growth suppression of beta-catenin-knockout colon cells, dose response, cell-based, HCT116, human colon tumor (AID 1045); format: functional;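 further: HCT116 colon tumor cells with beta catenin knocked out; cells exposed to compound for 60 hours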
[14] = Luminescence Cell-Based Dose Retest to Confirm Inhibitors of Cancer Stem Cells. [Related pubchem assays (depositor defined):AID2717, AID2721]; format: functional; conditions: Homo sapiens
[15] = biological target: DNA damage-inducible transcript 3 protein (Mus musculus, UniProt P35639); format: functional, Cricetulus griseus
Chain of DNA damage-inducible transcript 3 protein (P35639 whole entry): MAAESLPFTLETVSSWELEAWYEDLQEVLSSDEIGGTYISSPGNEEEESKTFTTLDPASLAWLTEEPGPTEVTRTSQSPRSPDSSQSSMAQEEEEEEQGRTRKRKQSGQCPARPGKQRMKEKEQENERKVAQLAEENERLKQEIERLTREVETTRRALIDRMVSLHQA

[16] = biological target: G-protein coupled receptor 35 (Homo sapiens, UniProt Q9HC97); assay: GPR35 antagonists blocking zaprinast-driven arrestin recruitment, primary screen, imaging, U2OS, beta-arrestin-GFP, zaprinast agonist (AID 2058); format: functional;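 further: antagonist potency meaning inhibition of agonist-induced arrestin redistribution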
Chain of G-protein coupled receptor 35 (Q9HC97 whole entry): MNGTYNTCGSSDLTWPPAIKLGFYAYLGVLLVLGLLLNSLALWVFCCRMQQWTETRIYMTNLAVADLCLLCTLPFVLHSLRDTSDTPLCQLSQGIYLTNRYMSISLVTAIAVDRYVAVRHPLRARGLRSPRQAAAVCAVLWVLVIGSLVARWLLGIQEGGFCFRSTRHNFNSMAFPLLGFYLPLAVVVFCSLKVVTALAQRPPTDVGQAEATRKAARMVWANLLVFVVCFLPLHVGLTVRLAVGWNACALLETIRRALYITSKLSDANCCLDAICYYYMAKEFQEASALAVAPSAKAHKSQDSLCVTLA

Hexokinase = Hexokinase (Trypanosoma brucei, UniProt Q38C41); assay: Confirmation assay for inhibitors of Trypanosoma brucei hexokinase 1-Analogue-first series. [Related pubchem assays (depositor defined):AID1430, AID1632, AID2516, AID2560, AID2579, AID2600, AID449725, AID492951]; format: functional
Chain of Hexokinase (Q38C41 whole entry): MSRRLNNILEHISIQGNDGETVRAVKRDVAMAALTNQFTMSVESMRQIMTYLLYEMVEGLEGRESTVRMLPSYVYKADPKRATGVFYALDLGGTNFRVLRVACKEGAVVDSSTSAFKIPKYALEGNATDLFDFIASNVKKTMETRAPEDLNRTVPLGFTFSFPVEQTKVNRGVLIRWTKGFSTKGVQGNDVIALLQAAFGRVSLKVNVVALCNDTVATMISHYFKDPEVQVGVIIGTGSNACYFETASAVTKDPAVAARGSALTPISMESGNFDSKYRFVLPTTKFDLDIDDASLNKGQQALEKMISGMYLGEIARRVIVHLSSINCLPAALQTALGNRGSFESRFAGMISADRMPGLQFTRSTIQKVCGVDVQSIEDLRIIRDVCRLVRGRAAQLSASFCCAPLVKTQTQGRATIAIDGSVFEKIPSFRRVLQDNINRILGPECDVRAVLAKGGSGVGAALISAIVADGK

[17] = Artemis endonuclease inhibitor potency, dose response, biochemical, fluorescence intensity (AID 720701); format: functional;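 further: Artemis endonuclease enzyme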
[18] = insulin promoter down-regulators in MIN6 cells, imaging, high-content screening, mouse beta cells (AID 1628); format: functional
[19] = cytotoxicity in MIN6 insulinoma cells, dose response, cytotoxicity control, cell-based, mouse insulinoma (AID 2122); format: functional;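 further: confirmatory high-throughput counterscreen run to flag cytotoxic compounds; mouse MIN-6 beta cells carrying an insulin promoter eGFP reporter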
[20] = Shn3 3'UTR reporter inhibitors, dose response, cell-based, Clone20 osteoblasts, firefly luciferase, cherry-picked (AID 624132); format: functional;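 further: firefly luciferase luminescence from reporter carrying the Shn3 3'UTR in osteoblasts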
[21] = HepG2 cell cytotoxicity, dose response, cytotoxicity control for Shn3 inhibitor project, CellTiter-Glo, cherry-picked (AID 624134); format: functional, cell-based
Paired box protein Pax-8 = Paired box protein Pax-8 (Homo sapiens, UniProt Q06710); assay: inhibitors of PAX8-driven TPO luciferase reporter, dose response, RMG-I cells, cherry-pick (AID 687027); format: functional, cell-based;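 further: luciferase reporter driven by Pax8 target thyroperoxidase promoter measured by SteadyGlo luminescence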
Chain of Paired box protein Pax-8 (Q06710 whole entry): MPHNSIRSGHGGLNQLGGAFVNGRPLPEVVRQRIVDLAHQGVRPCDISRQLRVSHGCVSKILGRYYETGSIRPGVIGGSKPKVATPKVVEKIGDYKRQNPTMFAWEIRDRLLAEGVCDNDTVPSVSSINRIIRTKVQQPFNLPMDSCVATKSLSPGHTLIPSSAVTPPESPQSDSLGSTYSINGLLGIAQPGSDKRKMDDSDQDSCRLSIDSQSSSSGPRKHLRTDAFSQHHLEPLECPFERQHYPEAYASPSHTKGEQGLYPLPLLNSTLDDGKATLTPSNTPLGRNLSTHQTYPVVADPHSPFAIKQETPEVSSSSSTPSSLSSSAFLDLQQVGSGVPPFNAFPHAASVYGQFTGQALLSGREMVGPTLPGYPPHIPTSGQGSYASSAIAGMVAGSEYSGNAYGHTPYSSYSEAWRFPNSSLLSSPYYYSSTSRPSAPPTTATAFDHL

Aspartyl aminopeptidase = Aspartyl aminopeptidase (Plasmodium falciparum 3D7, UniProt Q8I2J3)
Procathepsin L = Procathepsin L (Homo sapiens, UniProt P07711)
Chain of Procathepsin L (P07711 whole entry): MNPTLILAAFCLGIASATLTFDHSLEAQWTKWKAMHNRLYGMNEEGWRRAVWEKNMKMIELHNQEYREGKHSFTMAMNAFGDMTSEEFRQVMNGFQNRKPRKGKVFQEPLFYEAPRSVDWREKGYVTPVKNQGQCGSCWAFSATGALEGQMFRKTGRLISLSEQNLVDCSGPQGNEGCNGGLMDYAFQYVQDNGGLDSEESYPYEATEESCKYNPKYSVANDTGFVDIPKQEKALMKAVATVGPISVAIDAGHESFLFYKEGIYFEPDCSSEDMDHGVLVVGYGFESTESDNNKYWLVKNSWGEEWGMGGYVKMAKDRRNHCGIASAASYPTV

Cytochrome P450 2C9 = Cytochrome P450 2C9 (Homo sapiens, UniProt P11712); conditions: Potency
Chain of Cytochrome P450 2C9 (P11712 whole entry): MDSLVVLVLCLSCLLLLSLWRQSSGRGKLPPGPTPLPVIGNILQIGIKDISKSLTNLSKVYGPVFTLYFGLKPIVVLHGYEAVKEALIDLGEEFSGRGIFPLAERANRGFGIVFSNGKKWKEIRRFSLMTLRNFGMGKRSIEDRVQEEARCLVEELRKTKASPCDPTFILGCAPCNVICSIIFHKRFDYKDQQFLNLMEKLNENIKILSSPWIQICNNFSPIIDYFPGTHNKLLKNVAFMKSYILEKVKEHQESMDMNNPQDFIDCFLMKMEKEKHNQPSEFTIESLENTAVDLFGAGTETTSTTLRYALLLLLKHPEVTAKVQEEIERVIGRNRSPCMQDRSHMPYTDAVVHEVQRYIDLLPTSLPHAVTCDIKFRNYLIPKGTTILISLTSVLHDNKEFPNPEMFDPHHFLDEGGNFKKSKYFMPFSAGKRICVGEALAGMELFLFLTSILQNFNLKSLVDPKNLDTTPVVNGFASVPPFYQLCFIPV

[22] = biological target: C-C chemokine receptor type 6 (Homo sapiens, UniProt P51684); assay: CCR6 receptor antagonists, dose response, cell-based, luminescent beta-arrestin readout (AID 504728); format: functional
Beta-galactosidase = Beta-galactosidase (Escherichia coli, UniProt Q8VNN2); assay: beta-galactosidase enzyme inhibitors and activators, dose response, artefact control for CCR6 antagonist project, biochemical, E. coli enzyme, set 3 (AID 504712); format: functional
Cytochrome P450 2D6 = Cytochrome P450 2D6 (Homo sapiens, UniProt P10635); assay: qHTS Assay for Inhibitors and Substrates of Cytochrome P450 2D6. [Related pubchem assays: 410 ]; format: ADME; conditions: read-out: Potency
Chain of Cytochrome P450 2D6 (P10635 whole entry): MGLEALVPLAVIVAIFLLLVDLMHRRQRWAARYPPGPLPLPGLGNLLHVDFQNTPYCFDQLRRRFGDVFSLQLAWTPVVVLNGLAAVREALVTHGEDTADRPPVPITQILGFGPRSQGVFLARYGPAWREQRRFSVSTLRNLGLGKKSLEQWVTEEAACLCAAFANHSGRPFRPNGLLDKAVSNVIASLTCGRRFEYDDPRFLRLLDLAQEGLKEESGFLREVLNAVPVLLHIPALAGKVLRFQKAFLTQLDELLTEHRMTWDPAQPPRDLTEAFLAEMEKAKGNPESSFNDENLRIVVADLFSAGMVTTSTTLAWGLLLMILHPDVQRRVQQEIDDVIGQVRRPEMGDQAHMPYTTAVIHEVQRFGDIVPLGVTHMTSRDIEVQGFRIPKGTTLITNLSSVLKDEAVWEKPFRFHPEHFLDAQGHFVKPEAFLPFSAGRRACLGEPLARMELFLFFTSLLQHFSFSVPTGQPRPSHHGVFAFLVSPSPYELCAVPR

COc1ccc(F)cc1C(=O)C1CCCN(Cc2cccn2-c2ccccn2)C1 (stereo unspecified)
EC50 [1]: > 195 µM (not active)
EC50 [2]: 8.93 µM (active)

C[C@H](CCC(=O)O)[C@H]1CC[C@H]2[C@@H]3[C@@H](O)C[C@@H]4C[C@H](O)CC[C@]4(C)[C@H]3CC[C@]12C [URSODIOL]
IC50 (Aminopeptidase N): 2.6 µM (active)

COc1cccc(N(CC(=O)NC2CCCC2)C(=O)Cn2nnc(-c3ccc(C)cc3)n2)c1
AC50 [3]: 234 µM (active)

Cc1ccc2nc(O)c(C3C(C#N)=C(N)Oc4c3ccc3cccnc43)cc2c1 (stereo unspecified)
EC50 [4]: > 160 µM (inconclusive)
IC50 (Bcl-2-like protein 10): 66.8 µM (inactive)
EC50 [5]: 2.17 µM (active)
IC50 (Estrogen receptor): 19.5 µM (active)
IC50 (Nonstructural protein 1): 46.8 µM (active)
AC50 (INS1): 1.27 µM (active)
CC50 [6]: 2.48 µM (active)

O=C(ON=C1CCN(c2ccc([N+](=O)[O-])cc2)CC1)c1ccccc1
IC50 (Aminopeptidase N): 45.2 µM (active)
IC50 [7]: 2.74 µM (active)
EC50 [8]: > 53 µM (inactive)
IC50 [9]: > 20 µM (inactive)

C=C(C(=O)c1ccccc1)C(C)C(=C)C(=O)c1ccccc1
EC50 [10]: 7.98 µM (active)
EC50 [11]: > 120 µM (not active)
EC50 (H4): > 120 µM (not active)
EC50 [12]: 1.65 µM (active)
EC50 [13]: 1.14 µM (active)
AC50 [14]: 2.33 µM (active)
Absolute IC50 (CHOP) [15]: 10 µM
AC50 (INS1): 7.97 µM (active)

CC(=O)Nc1sc(/C(C#N)=C/c2ccc(Cl)c(Cl)c2)nc1-c1ccc(C)cc1
IC50 [16]: 0.534 µM (active)

COc1ccc(NC(=O)c2ccc(Cl)cc2C(=O)O)cc1
IC50 (Hexokinase): > 25 µM (inactive)

O=C(Cc1ccccc1)Nc1ccc(N2CCCC2)cc1
IC50 (Bcl-2-like protein 10): 31.2 µM (active)
IC50 [17]: 6.03 µM (active)

O=C(Nc1ccc(Cl)cc1)Nc1ccc(N2CCCC2)c(S(=O)(=O)Nc2ccccc2Cl)c1
IC50 [18]: 4.47 µM (active)
IC50 [19]: > 16 µM (inactive)
AC50 [3]: 23.5 µM (active)
AC50 (INS1): 6.99 µM (active)
AC50 [20]: 5.2 µM (active)
AC50 [21]: 7.06 µM (active)
AC50 (Paired box protein Pax-8): 5.13 µM (active)

CC1=C([N+](=O)[O-])C(c2ccc(O)c(O)c2)NC(=O)N1 (stereo unspecified)
IC50 (Aspartyl aminopeptidase): 0.864 µM (active)
IC50 (Procathepsin L): > 59.6 µM (not active)

COc1ccc(-c2coc3ccc(O[C@@H]4O[C@@H](COC(C)=O)[C@@H](OC(C)=O)[C@@H](OC(C)=O)[C@H]4OC(C)=O)cc3c2=O)cc1
AC50 (Cytochrome P450 2C9): 20 µM (inconclusive)

C/C(CCC12CC3CC(CC(C3)C1)C2)=N\NC(N)=S
IC50 [22]: 50.4 µM (inactive)
IC50 (Beta-galactosidase): > 66.6 µM (inactive)

COc1ccc2c(c1OC)C(=O)O[C@@H]2[C@H]1c2cc3c(cc2CCN1C)OCO3 [HYDRASTINE]
AC50 (Cytochrome P450 2D6): 39.8 µM (inconclusive)
AC50 (Cytochrome P450 2C9): 25.1 µM (inconclusive)
